Assays:
MLLT1 = biological target: T1, MLLT1 (Homo sapiens, UniProt Q03111); experiment: MLLT1 degradation assay in MV4-11 cells (JESS chemiluminescent detection), three concentrations, 24 h; type: cell-based; conditions: with respect to DMSO control
T1 construct: host or cells: MV4-11
T1 sequence (Q03111 1-559): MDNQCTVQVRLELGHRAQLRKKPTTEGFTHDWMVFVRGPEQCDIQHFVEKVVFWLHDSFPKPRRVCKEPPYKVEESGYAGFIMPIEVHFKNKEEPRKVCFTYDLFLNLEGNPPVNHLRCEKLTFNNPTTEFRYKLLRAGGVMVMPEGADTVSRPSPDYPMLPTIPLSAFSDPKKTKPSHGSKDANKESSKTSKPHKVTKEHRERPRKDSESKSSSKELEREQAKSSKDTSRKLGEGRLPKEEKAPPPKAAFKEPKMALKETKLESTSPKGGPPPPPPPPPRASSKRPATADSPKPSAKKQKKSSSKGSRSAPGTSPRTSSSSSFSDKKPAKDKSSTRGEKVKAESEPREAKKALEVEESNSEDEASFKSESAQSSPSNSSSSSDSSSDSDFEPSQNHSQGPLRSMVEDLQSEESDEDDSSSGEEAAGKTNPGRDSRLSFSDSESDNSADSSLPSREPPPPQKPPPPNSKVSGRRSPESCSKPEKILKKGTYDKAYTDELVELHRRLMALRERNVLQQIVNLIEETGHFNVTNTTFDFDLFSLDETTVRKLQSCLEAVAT
Procedure, shortened: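 Read-out is % MLLT1 degradation versus DMSO, from band peak areas on a JESS chemiluminescent system. Cells (MV4-11) were exposed for 24 h at 37° C to three compound levels, 10, 100 and 1000 nM, in 0.1% DMSO.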

MV4-11 cells = experiment: MV4-11 cellular proliferative assay, Assay Format B (CTG 2.0, 168 h); type: cell-based; conditions: Homo sapiens, 168 h (7 days), CTG 2.0, read-out: IC50 (MV4-11 cellular proliferative assay, Assay format B)
Procedure, shortened: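 Viability read by CellTiter-Glo 2.0 luminescence after 7-day (168 h) compound exposure of MV4-11 cells in IMDM/10% FBS. Ten 3-fold concentrations starting at 1 uM or 100 nM, 0.3% final DMSO; curves normalised to DMSO control, four-parameter fit.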

SMILES | MLLT1% Degradation @ 0.01 μM (MLLT1) | MLLT1% Degradation @ 0.1 μM (MLLT1) | MLLT1% Degradation @ 1 μM (MLLT1) | IC50 (MV4-11 cells) [nM]
Cc1cc(C2CCN(c3ccc(C(=O)Nc4cc5[nH]c([C@H]6CCCN6C)cc5cn4)cn3)CC2)ccc1-c1cccc2c1CN(C1CCC(=O)NC1=O)C2=O (stereo partly drawn) [Example 99, 6-(4-(4-(2-(2,6-dioxopiperidin-3-yl)-1-oxoisoindolin-4-yl)-3-methylphenyl)piperidin-1-yl)-N-(2-((R)-1-methylpyrrolidin-2-yl)-1H-pyrrolo[3,2-c]pyridin-6-yl)nicotinamide] | B (Category B: 50% ≤ B < 75% degradation) | A (Category A: A ≥ 75% degradation) | A (Category A: A ≥ 75% degradation) | ≤ 100
CN1CCC[C@@H]1c1cc2cnc(NC(=O)c3ccc(C4CCN(C(=O)CC5CCN(c6cccc7c6CN(C6CCC(=O)NC6=O)C7=O)CC5)CC4)cc3)cc2[nH]1 (stereo partly drawn) [Example 107, 4-(1-(2-(1-(2-(2,6-dioxopiperidin-3-yl)-1-oxoisoindolin-4-yl)piperidin-4-yl)acetyl)piperidin-4-yl)-N-(2-((R)-1-methylpyrrolidin-2-yl)-1H-pyrrolo[3,2-c]pyridin-6-yl)benzamide] | B (Category B: 50% ≤ B < 75% degradation) | A (Category A: A ≥ 75% degradation) | A (Category A: A ≥ 75% degradation) | ≤ 100
CN1CCC[C@@H]1c1cc2cnc(NC(=O)c3ccc(N4CCN(C(=O)CC5CCN(c6cccc7c6CN(C6CCC(=O)NC6=O)C7=O)CC5)CC4)nc3)cc2[nH]1 (stereo partly drawn) [Example 108, 6-(4-(2-(1-(2-(2,6-dioxopiperidin-3-yl)-1-oxoisoindolin-4-yl)piperidin-4-yl)acetyl)piperazin-1-yl)-N-(2-((R)-1-methylpyrrolidin-2-yl)-1H-pyrrolo[3,2-c]pyridin-6-yl)nicotinamide] | A (Category A: A ≥ 75% degradation) | A (Category A: A ≥ 75% degradation) | B (Category B: 50% ≤ B < 75% degradation) | ≤ 100
CN1CCC[C@@H]1c1cc2cnc(NC(=O)c3ccc(N4CCC(OCc5ccc(-c6cccc7c6CN(C6CCC(=O)NC6=O)C7=O)cc5)CC4)nc3)cc2[nH]1 (stereo partly drawn) [Example 109, 6-(4-((4-(2-(2,6-dioxopiperidin-3-yl)-1-oxoisoindolin-4-yl)benzyl)oxy)piperidin-1-yl)-N-(2-((R)-1-methylpyrrolidin-2-yl)-1H-pyrrolo[3,2-c]pyridin-6-yl)nicotinamide] | B (Category B: 50% ≤ B < 75% degradation) | A (Category A: A ≥ 75% degradation) | A (Category A: A ≥ 75% degradation) | ≤ 100
[2H]C([2H])([2H])N1CCC[C@@H]1c1cc2cnc(NC(=O)c3ccc(CCCC#Cc4cccc5c4CN(C4CCC(=O)NC4=O)C5=O)cc3)cc2[nH]1 (stereo partly drawn) [Example 111, 4-(5-(2-(2,6-dioxopiperidin-3-yl)-1-oxoisoindolin-4-yl)pent-4-yn-1-yl)-N-(2-((R)-1-(methyl-d3)pyrrolidin-2-yl)-1H-pyrrolo[3,2-c]pyridin-6-yl)benzamide] | A (Category A: A ≥ 75% degradation) | A (Category A: A ≥ 75% degradation) | A (Category A: A ≥ 75% degradation) | ≤ 100
CN1CCC[C@@H]1c1cc2cnc(NC(=O)c3ccc(CCCCC#Cc4cccc5c4CN(C4CCC(=O)NC4=O)C5=O)cc3F)cc2[nH]1 (stereo partly drawn) [Example 112, 4-(6-(2-(2,6-dioxopiperidin-3-yl)-1-oxoisoindolin-4-yl)hex-5-yn-1-yl)-2-fluoro-N-(2-((R)-1-methylpyrrolidin-2-yl)-1H-pyrrolo[3,2-c]pyridin-6-yl)benzamide] | A (Category A: A ≥ 75% degradation) | A (Category A: A ≥ 75% degradation) | A (Category A: A ≥ 75% degradation) | ≤ 100
CN1CCC[C@@H]1c1[nH]c2cc(NC(=O)c3ccc(CCCCC#Cc4cccc5c4CN(C4CCC(=O)NC4=O)C5=O)cc3F)ncc2c1Cl (stereo partly drawn) [Example 113, N-(3-chloro-2-((R)-1-methylpyrrolidin-2-yl)-1H-pyrrolo[3,2-c]pyridin-6-yl)-4-(6-(2-(2,6-dioxopiperidin-3-yl)-1-oxoisoindolin-4-yl)hex-5-yn-1-yl)-2-fluorobenzamide] | A (Category A: A ≥ 75% degradation) | A (Category A: A ≥ 75% degradation) | A (Category A: A ≥ 75% degradation) | ≤ 100
COc1cc(CCCCC#Cc2cccc3c2CN(C2CCC(=O)NC2=O)C3=O)ccc1C(=O)Nc1cc2[nH]c([C@H]3CCCN3C)cc2cn1 (stereo partly drawn) [Example 115, 4-(6-(2-(2,6-dioxopiperidin-3-yl)-1-oxoisoindolin-4-yl)hex-5-yn-1-yl)-2-methoxy-N-(2-((R)-1-methylpyrrolidin-2-yl)-1H-pyrrolo[3,2-c]pyridin-6-yl)benzamide] | A (Category A: A ≥ 75% degradation) | A (Category A: A ≥ 75% degradation) | A (Category A: A ≥ 75% degradation) | ≤ 100
CN1CCC[C@@H]1c1cc2cnc(NC(=O)c3ccc(C4CCN(CC5CCN(c6cccc7c6CN(C6CCC(=O)NC6=O)C7=O)CC5)CC4)nc3)cc2[nH]1 (stereo partly drawn) [Example 119, 6-(1-((1-(2-(2,6-dioxopiperidin-3-yl)-1-oxoisoindolin-4-yl)piperidin-4-yl)methyl)piperidin-4-yl)-N-(2-((R)-1-methylpyrrolidin-2-yl)-1H-pyrrolo[3,2-c]pyridin-6-yl)nicotinamide] | B (Category B: 50% ≤ B < 75% degradation) | A (Category A: A ≥ 75% degradation) | A (Category A: A ≥ 75% degradation) | ≤ 100

The remaining lines, values ahead:

MLLT1% Degradation @ 0.01 μM (MLLT1) | MLLT1% Degradation @ 0.1 μM (MLLT1) | MLLT1% Degradation @ 1 μM (MLLT1) | IC50 (MV4-11 cells) [nM] | SMILES
A (Category A: A ≥ 75% degradation) | A (Category A: A ≥ 75% degradation) | A (Category A: A ≥ 75% degradation) | ≤ 100 | CN1CCC[C@@H]1c1cc2cnc(NC(=O)c3cccc(CCCC#Cc4cccc5c4CN(C4CCC(=O)NC4=O)C5=O)c3)cc2[nH]1 (stereo partly drawn) [Example 95, 3-(5-(2-(2,6-dioxopiperidin-3-yl)-1-oxoisoindolin-4-yl)pent-4-yn-1-yl)-N-(2-((R)-1-methylpyrrolidin-2-yl)-1H-pyrrolo[3,2-c]pyridin-6-yl)benzamide]
A (Category A: A ≥ 75% degradation) | A (Category A: A ≥ 75% degradation) | A (Category A: A ≥ 75% degradation) | ≤ 100 | CN1CCC[C@@H]1c1cc2cnc(NC(=O)c3cccc(CCCCC#Cc4cccc5c4CN(C4CCC(=O)NC4=O)C5=O)c3)cc2[nH]1 (stereo partly drawn) [Example 96, 3-(6-(2-(2,6-dioxopiperidin-3-yl)-1-oxoisoindolin-4-yl)hex-5-yn-1-yl)-N-(2-((R)-1-methylpyrrolidin-2-yl)-1H-pyrrolo[3,2-c]pyridin-6-yl)benzamide]
A (Category A: A ≥ 75% degradation) | A (Category A: A ≥ 75% degradation) | A (Category A: A ≥ 75% degradation) | ≤ 100 | CN1CCC[C@@H]1c1cc2cnc(NC(=O)c3ccc(N4CCN(Cc5ccc(-c6cccc7c6CN(C6CCC(=O)NC6=O)C7=O)cc5)CC4)cc3)cc2[nH]1 (stereo partly drawn) [Example 98, 4-(4-(4-(2-(2,6-dioxopiperidin-3-yl)-1-oxoisoindolin-4-yl)benzyl)piperazin-1-yl)-N-(2-((R)-1-methylpyrrolidin-2-yl)-1H-pyrrolo[3,2-c]pyridin-6-yl)benzamide]
A (Category A: A ≥ 75% degradation) | A (Category A: A ≥ 75% degradation) | A (Category A: A ≥ 75% degradation) | ≤ 100 | CN1CCC[C@@H]1c1[nH]c2cc(NC(=O)c3ccc(CCCC#Cc4cccc5c4CN(C4CCC(=O)NC4=O)C5=O)cc3)ncc2c1Cl (stereo partly drawn) [Example 100, N-(3-chloro-2-((R)-1-methylpyrrolidin-2-yl)-1H-pyrrolo[3,2-c]pyridin-6-yl)-4-(5-(2-(2,6-dioxopiperidin-3-yl)-1-oxoisoindolin-4-yl)pent-4-yn-1-yl)benzamide]
A (Category A: A ≥ 75% degradation) | A (Category A: A ≥ 75% degradation) | A (Category A: A ≥ 75% degradation) | ≤ 100 | CN1CCC[C@@H]1c1cc2cnc(NC(=O)c3ccc(CCCC#Cc4cc(F)cc5c4CN(C4CCC(=O)NC4=O)C5=O)cc3)cc2[nH]1 (stereo partly drawn) [Example 101, 4-(5-(2-(2,6-dioxopiperidin-3-yl)-6-fluoro-1-oxoisoindolin-4-yl)pent-4-yn-1-yl)-N-(2-((R)-1-methylpyrrolidin-2-yl)-1H-pyrrolo[3,2-c]pyridin-6-yl)benzamide]
